How the values were obtained:
[1] = molecular target: T1, binding of human MCP-1 to THP-1 cells (Homo sapiens, UniProt P41597); experiment: Inhibition of binding of [125I]-labeled baculovirus expressed human MCP-1 to THP-1 cells (Method 1); settings: for inhibition at 100 µM: Method 1, at 100 μM
T1 construct: endogenous in cells; host or cells: THP-1 (human monocytic leukemia cell line), whole cells
T1 sequence (P41597 1-360 isoform P41597-2): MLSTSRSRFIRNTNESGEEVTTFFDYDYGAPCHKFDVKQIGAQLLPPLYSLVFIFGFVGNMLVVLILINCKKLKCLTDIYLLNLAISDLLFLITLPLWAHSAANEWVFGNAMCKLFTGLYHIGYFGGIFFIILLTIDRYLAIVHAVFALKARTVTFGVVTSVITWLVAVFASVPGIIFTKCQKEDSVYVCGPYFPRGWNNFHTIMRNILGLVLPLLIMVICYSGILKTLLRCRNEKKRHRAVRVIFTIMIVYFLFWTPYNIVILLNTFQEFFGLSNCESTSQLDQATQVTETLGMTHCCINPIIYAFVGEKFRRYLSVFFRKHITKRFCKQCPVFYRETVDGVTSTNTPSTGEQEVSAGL
From the text: Measurement of Inhibition of MCP-1 Binding to THP-1 Cells 1. Construction of recombinant baculovirus carrying the human MCP-1 gene Based on the previously published human MCP-1 gene sequence (for example T. Yoshirnura et al., FEBS Lett., 1989, 244, 487-493), two synthetic DNA primers ([NT] and [NT]) flanked by restriction enzyme sites were used to amplify a DNA fragment from cDNA derived from human endothelial cells (purchased from Kurabow Co.); the amplified fragment was cut with the restriction enzymes (PstI and XbaI), ligated into a transfer vector pVL1393 (Invitrogen Co.), and the resulting vector was co-transfected along with infectious baculovirus into Sf-9 insect cells and the supernatant was plaque assayed to yield human MCP-1 gene baculovirus recombinant. […] Using the method of K. Ishii et al. […] The culture supernatant was affinity purified using a heparin Sepharose column (Pharmacia Co.) and then further purified using reverse phase HPLC (Vydac C18 column) to prepare purified human MCP-1. […] 3-1. […] The test. compound was diluted in the assay buffer and used as the test compound solution. [^125I]-labeled human MCP-1 described above was diluted in assay buffer to 1 mCi/mL and used as the labeled ligand solution. In a 96 well filter plate (Millipore Co.), 25 μL of test compound solution, 25 μL of labeled ligand solution and 50 μL of cell suspension were aliquoted into each well in this order, stirred (total reaction volume 100 μL), and incubated for one hour at 18° C. After the reaction, the reaction solution was filtered, and the filter was washed twice with 200 μL of cold PBS (200 μL of cold PBS was added and then filtered). The filter was air-dried and 25 μL of liquid sciatillator was added into each well. The radioactivity retained by the cells on the filter were measured using TopCount (Packard Instrument Co.). To calculate the ability of test compound to inhibit binding of human MCP-1 to THP-1 cells, non-specific binding determined by adding 100 ng of unlabeled human MCP-1 in place of the test compound was subtracted, while the counts with no test compound added was taken as 100%. Inhibition (%)=(1-(A-B)/(C-B))×100 (A, counts with test compound added; B, counts with 100 ng of unlabeled human MCP-1 added; C, counts with [^125I]-labeled human MCP-1 added).

[2] = molecular target: T2, binding of human MIP-1α to THP-1 cells (Homo sapiens, UniProt P32246); experiment: Inhibition of MIP-1α binding to THP-1 cells
T2 construct: endogenous in cells; host or cells: THP-1 (human monocytic leukemia cell line), whole cells
T2 sequence (P32246 1-355): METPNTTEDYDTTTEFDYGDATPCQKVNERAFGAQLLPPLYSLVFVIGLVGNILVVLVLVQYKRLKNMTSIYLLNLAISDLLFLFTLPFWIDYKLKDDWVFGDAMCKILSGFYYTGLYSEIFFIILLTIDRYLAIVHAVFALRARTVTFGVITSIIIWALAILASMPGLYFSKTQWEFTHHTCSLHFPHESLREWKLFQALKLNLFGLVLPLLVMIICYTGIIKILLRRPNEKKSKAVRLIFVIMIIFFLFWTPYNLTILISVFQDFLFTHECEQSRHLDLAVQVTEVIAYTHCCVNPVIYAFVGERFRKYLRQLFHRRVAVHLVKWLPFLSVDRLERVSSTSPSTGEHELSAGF
Experimental: Measurement of Inhibition of MIP-1α Binding to THP-1 Cells by Test Compounds
(§1) Human monocytic leukemia cell line THP-1 was suspended in assay buffer (RPMI-1640 (Gibco-BRL Co.) containing 0.1% BSA and 25 mM HEPES adjusted to pH 7.4) to give a cell suspension of a concentration of 1×10^7 cells/mL. The test compound was diluted in the assay buffer and used as the test compound solution. Iodinated human MIP-1α (DuPont NEN Co.) was diluted in assay buffer to 250 nCi/mL and used as the labeled ligand solution. In a 96 well filter plate (Millipore Co.), 25 μL of test compound solution, 25 μL of labeled ligand solution and 50 μL of cell suspension were aliquoted into each well in this order, stirred (total reaction volume 100 μL), and incubated for one hour at 18° C.
(§2) After the reaction, the reaction solution was filtered, and the filter was washed twice with 200 μL of cold PBS (200 μL of cold PBS was added and then filtered). The filter was air-dried and 25 μL of liquid scintillator was added into each well. The radioactivity retained by the cells on the filter were measured using TopCounit (Packard Instrument Co.).
To calculate the ability of test compounds to inhibit binding of human MIP-1α to THP-1 cells, non-specific binding determined by adding 100 ng of unlabeled human MIP-1α (Peprotech Co.) in place of the test compound was subtracted, while the counts with no test compound added was taken as 100%.
(§3) Inhibition (%)={1−(A−B)/(C−B)}×100
(A, counts with test compound added; B, counts with 100 ng of unlabeled human MIP-1α added; C, counts with [^125I]-labeled human MIP-1α added).

THP-1 cells = experiment: Inhibition of cell chemotaxis caused by MCP-1; type: cell-based; settings: Homo sapiens, MCP-1 20 ng/mL, read-out: inhibition of cell migration IC50
Experimental: Measurement of Inhibition of Cell Chemotaxis
In order to determine the inhibition of cell chemotaxis by the compounds of this invention, we measured cell chemotaxis caused by monocyte chemotactic factor MCP-1 using the human monocytic leukemia cell line THP-1 as the chemotactic cell according to the method of Fall et al. (J. Immunol. Methods, 190, 33,239-247). 2×10^6 cells/mL of THP-1 cells (suspended in RPMI-1640 (Flow Laboratories Co.)+10% FCS) was placed in the upper chamber (200 μL) of a 96 well micro-chemotaxis chamber (Neuroprobe; registered tradename), and human recombinant MCP-1 in a same solution (Peprotech Co.) at a final concentration of 20 ng/mL was placed in the lower chamber, with a polycarbonate filter (PVP-free, Neuroprobe; registered tradename) placed between the two chambers. These were incubated at 37° C. for 2 hr in 5% CO2.
The filter was removed, and the cells which had migrated to the underside of the filter was fixed, stained using Diff Quick (Kokusai Shiyaku Co.) and then quantitated using a plate reader (Molecular Device Co.) at a wavelength of 550 nm to determine the index of cell migration as a mean of 3 wells. In addition, test compounds were placed in the upper and lower chambers along with THP-1 and MCP-1, respectively, and the inhibition of cell migration (inhibition IC50 (μM)) was determined.

[3] = molecular target: T1, binding of human MCP-1 to THP-1 cells; experiment: Inhibition of binding of [125I]-labeled baculovirus expressed human MCP-1 to THP-1 cells (Method 2); settings: for inhibition at 1 µM: Method 2, at 1 μM
From the text: 1. Construction of recombinant baculovirus carrying the human MCP-1 gene
Based on the previously published human MCP-1 gene sequence (for example T. Yoshirnura et al., FEBS Lett., 1989, 244, 487-493), two synthetic DNA primers (5′-[…]-3′ and 5′-[…]-3′) flanked by restriction enzyme sites were used to amplify a DNA fragment from cDNA derived from human endothelial cells (purchased from Kurabow Co.); the amplified fragment was cut with the restriction enzymes (PstI and XbaI), ligated into a transfer vector pVL1393 (Invitrogen Co.), and the resulting vector was co-transfected along with infectious baculovirus into Sf-9 insect cells and the supernatant was plaque assayed to yield human MCP-1 gene baculovirus recombinant.
2. Synthesis of [^125I]-labeled human MCP-1 expressed in baculovirus
Using the method of K. Ishii et al. (Biochem Biophys Research Communications, 1995, 206, 955-961), 5×10^6 Sf-6 insect cells was infected with 5×10^7 PFU (plaque forming units) of the above human MCP-1 recombinant baculovirus and cultured for 7 days in Ex-Cell 401 medium. The culture supernatant was affinity purified using a heparin Sepharose column (Pharmacia Co.) and then further purified using reverse phase HPLC (Vydac C18 column) to prepare purified human MCP-1. The purified human MCP-1 was protein labeled by Amersham Co. using the Bolton Hunter method to yield [^125I]-labeled baculovirus expressed human MCP-1 (specific activity 2000 Ci/mmol).
3-2. Measurement of inhibition of binding of [^125I]-labeled baculovirus expressed human MCP-1 to THP-1 cells (Method 2)
as §1, with “(50” for “(RPMI-1640 (Gibco-BRL Co.) containing 0.1% BSA and 25”, “HEPES,” for “HEPES adjusted to”, “7.4, 1.0 mM CaCl2, 5.0% mM MgCl2, 0.5% BSA)” for “7.4)”, “[^125I]-labeled” for “Iodinated”, “MCP-1 described above” for “MIP-1α (DuPont NEN Co.)”, “1 mCi/mL” for “250 nCi/mL”
as §2, with “TopCount” for “TopCounit”
To calculate the ability of test compound to inhibit binding of human MCP-1 to THP-1 cells, non-specific binding determined by adding 100 ng of unlabeled human MCP-1 in place of the test compound was subtracted, while the counts with no test compound added was taken as 100%.
as §3
(A, counts with test compound added; B, counts with 100 ng of unlabeled human MCP-1 added; C, counts with [^125I]-labeled human MCP-1 added).

Structure (SMILES) | inhibition at 10 µM [2] | IC50 (THP-1 cells) | inhibition at 100 µM [1] | further results
CN(CC1CCN(Cc2ccc(Cl)cc2)CC1)C(=O)CNC(=O)c1cccc(C(F)(F)F)c1 [Compound No. 520, 1-(4-chlorobenzyl)-4-[N-methyl-N-{N-(3-(trifluoromethyl)benzoyl)glycyl}aminomethyl]piperidine] | 50 to 80% |  |  | inhibition at 10 µM ([1]; Method 1, at 10 μM): 50 to 80%
O=C(CNC(=O)c1cccc(C(F)(F)F)c1)NCC1CCN(Cc2ccc(Cl)cc2)CC1 [Compound No. 461, 1-(4-chlorobenzyl)-4-[{N-(3-(trifluoromethyl)benzoyl)glycyl}aminomethyl]piperidine] | > 80% | < 100 nM |  | 
O=C(CNC(=O)c1ccccc1)NCC1CCN(Cc2ccc(Cl)cc2)CC1 [Compound No. 458, 4-{(N-Benzoylglycyl)amino}methyl-1-(4-chlorobenzyl)piperidine] | 50 to 80% |  | > 80% | 
O=C(NCC(=O)N(CC1CCN(Cc2ccc(Cl)cc2)CC1)CC(c1ccccc1)c1ccccc1)c1ccccc1 [Compound No. 524, 4-{N-(N-Benzoylglycyl)-N-(2,2-diphenylethyl)aminomethyl}-1-(4-chlorobenzyl)piperidine] | 20 to 50% |  |  | 

Second part, led by results:

inhibition at 10 µM [2] | IC50 (THP-1 cells) | inhibition at 100 µM [1] | Structure (SMILES) | further results
 | < 100 nM |  | Nc1cc(Cl)ccc1CN1CCC(CNC(=O)CNC(=O)c2cc(C(F)(F)F)ccc2N)CC1 [Compound No. 1919, 4-[{N-(2-Amino-5-trifluoromethylbenzoyl)glycyl}aminomethyl]-1-(2-amino-4-chlorobenzyl)piperidine] | inhibition at 1 µM [3]: > 80%; inhibition at 2 µM [2]: 20 to 50%
50 to 80% | < 100 nM |  | Nc1ccc(Br)cc1C(=O)NCC(=O)NCC1CCN(Cc2ccc(Cl)cc2)CC1 [Compound No. 1042, 4-{N-(2-amino-5-bromobenzoyl)glycyl}aminomethyl-1-(4-chlorobenzyl)piperidine] | inhibition at 1 µM [3]: > 80%; inhibition at 10 µM ([3]; Method 2, at 10 μM): > 80%; inhibition at 2 µM [2]: 20 to 50%
50 to 80% |  |  | CC(C)[C@H](NC(=O)c1cccc(C#N)c1)C(=O)NCC1CCN(Cc2ccc(Cl)cc2)CC1 [Compound No. 619, 1-(4-Chlorobenzyl)-4-[{N-(3-cyanobenzoyl)valyl}aminomethyl]piperidine] | 
> 80% |  | 20 to 50% | CC(C)c1ccc(S(=O)(=O)NCC(=O)NCC2CCN(Cc3ccc(Cl)cc3)CC2)cc1 [Compound No. 869, 1-(4-Chlorobenzyl)-4-[{N-(4-isopropylphenylsulfonyl)glycyl}aminomethyl]piperidine] | 
50 to 80% |  | 50 to 80% | O=C(CNC(=O)c1ccccc1)NC1CCN(Cc2ccc(Cl)cc2)C1 (centres unmarked) [compound 1, 3-(N-Benzoylglycyl)amino-1-(4-chlorobenzyl)pyrrolidine] | 
